Data: patent EP0840781B1, “METHODS AND DEVICES FOR THE REMOVAL OF PSORALENS FROM BLOOD PRODUCTS” (Cerus Corporation, priority 1995, dated 1996)

Key:
[1] = tested on: Duck Hepatitis B Virus (DHBV); test: Inactivation of Duck Hepatitis B Virus in platelet concentrate, read out by PCR amplification; format: biochemical; conditions: 5 J/cm^2 UVA
Description: This example describes the protocol for inactivation of Duck Hepatitis B Virus (DHBV), a model for Hepatitis B Virus, using compounds described herein.
DHBV in duck yolk was added to platelet concentrate (PC) to a final concentration of 2 x 10^7 particles per mL and mixed by gentle rocking for ≥15 min. Psoralens S-70, S-59 and AMT were added to 3 mL aliquots of PC in a Teflon™ mini-bag at concentrations of […]. Samples, including controls without added psoralen, were irradiated with 5 J/cm^2 UVA, with mixing at 1 J/cm^2 increments. After irradiation, leukocytes and platelets were separated from virus by centrifugation. The supernatant containing DHBV was digested overnight with 50 µg/mL proteinase K in a buffer containing 0.5% sodium dodecyl sulphate, 20 mM Tris buffer, pH 8.0, and 5 mM EDTA at 55°C. Samples were extracted with phenolchloroform and chloroform, followed by ethanol precipitation. Purified DNA was then used in PCR amplification reactions with a starting input of 10^6 DHBV genomes from each sample. PCR amplicons were generated using primers pairs DCD03/DCD05 (127 bp), DCD03/DCD06 (327 bp) and DCD03/DCD07 (1072 bp). PCR was performed in a standard PCR buffer containing 0.2 mM each deoxyribonucleoside 5'-triphosphates (dATP, dGTP, dCTP, and dTTP), […] each primer, and 0.5 units Taq polymerase per […]. 30 cycles of amplification were performed with the following thermal profile: 95°C 30 sec, 60° C 30 sec, 72° C 1 min. The amplification was followed by a 7 min incubation at 72° C to yield full length products. [[…]-^32P] dCTP was added at an amount of […] per […] in order to detect and quantify the resulting products. Products were separated by electrophoresis on denaturing polyacrylamide slab gels and counted. The absence of signal in a given reaction was taken to indicate effective inactivation of DHBV.

[2] = tested on: platelets suspended in 35% plasma/65% PAS III; test: Partitioning and distribution of S-59 in platelet concentrate before and after UVA (3H-S-59, HPLC); conditions: C0 = 50 µM (FIG. 25A)
Source text: […] When designing a "capture" or "scrub" device for psoralen removal, an important consideration is the identification and quantification of the residual levels of low molecular weight photoproducts. Several properties of the platelet mixture (e.g., lipid content, platelet content, hemoglobin/RBC content) can affect the final partitioning of psoralen and the amount of each photoproduct that must be removed during the capture or scrub process.
Upon addition of S-59 to platelets, the S-59 rapidly partitions, establishing an equilibrium between S-59 in the plasma and S-59 within the platelets. […] In addition, higher percentages of S-59 will partition to the platelets if long incubation periods (e.g., greater than 60 minutes) occur between the addition of S-59 and illumination with UVA. The amount of S-59 which partitions to the platelets ultimately determines how much S-59 remains associated with platelets, how much is associated with plasma macromolecules, and how much remains as free photoproduct.
During the UVA illumination process, S-59 undergoes a photochemical reaction to form several low molecular weight photoproducts in addition to associating with macromolecules in both the platelet and the plasma fractions. […]
The S-59 which is not amenable to removal by the scrub/capture process can also be monitored using ^3H-labeled S-59. […]

platelet concentrate = test: pO2, pCO2 and bicarbonate concentration of platelet concentrate; format: cell-based, human; conditions: T = test unit (150 µM S-59, 3 Joules/cm^2 UVA, RD 8 hours on day 1)
Description: In addition to the data summarized in Table E, measurements of pH, pO2, and pCO2 were taken over a five-day storage period. No significant differences between the treated and control units were observed. Finally, it should be noted that these experiments were performed with standard Amberlite™ resins (i.e., resins which were not treated by Supelco, Inc.).
(§1) For the evaluation of in vitro platelet function, platelet samples were withdrawn from both the control and test units before treatment and after treatment on days 2, 5, and 7. The following parameters were analyzed: pH, pO2, pCO2, bicarbonate concentration, platelet count, morphology, aggregation, platelet shape change, hypotonic shock response, lactate production, glucose consumption, ATP secretion, p-selectin expression, and microvesicle formation. Several of these assays, including pH, morphology score, platelet shape change, and hypotonic shock response, have been reported in the literature to correlate with in- vivo post-transfusion recovery and survival. The Student's paired t-test was used for statistical analysis.

platelets = test: Microvesicle formation of platelets; format: cell-based, human; conditions: T = test unit (150 µM S-59, 3 Joules/cm^2 UVA, RD 8 hours on day 1)
Description: as §1

Row | Compound | PCR of the 1072 bp amplicon of DHBV ([1]; all concentrations (35, 70, and 100 mM) in PC) | inhibition of PCR of the smaller amplicons (127 bp, 327 bp) of DHBV ([1]; same concentrations as AMT) | time to S-59 equilibrium (uptake by platelets) [2] | Bicarbonate (platelet concentrate; Day 2) | pCO2 (platelet concentrate; Day 2) | pO2 (platelet concentrate; Day 2) | Bicarbonate (platelet concentrate; Day 5) | pCO2 (platelet concentrate; Day 5) | pO2 (platelet concentrate; Day 5) | Bicarbonate (platelet concentrate; Day 7) | pCO2 (platelet concentrate; Day 7) | pO2 (platelet concentrate; Day 7) | (%) Microvesicle Formation (platelets; Day 2) | (%) Microvesicle Formation (platelets; Day 5) | (%) Microvesicle Formation (platelets; Day 7) | PCR amplification of the 1072 bp amplicon of DHBV [1] | PCR amplification of the 1072 bp amplicon of DHBV ([1]; 70 and 100 mM in PC)
1 | Cc1oc2c(C)c3oc(=O)cc(C)c3cc2c1COCCN [Compound 2, 4'-(4-amino-2-oxa)butyl-4,5',8-trimethylpsoralen] | complete inhibition of PCR | better than did AMT | approximately two | 6.3 ± 0.3 mM | 29.2±3.8 mm Hg | 68.3±19.4 mm Hg | 4.8 ± 0.5 mM | 23.7±3.5 mm Hg | 84.8±22.5 mm Hg | 4.2 ± 0.7 mM | 20.7±2.4 mm Hg | 88.8±20.2 mm Hg | 0.9±0.2% | 0.8±0.2% | 1.7±1.7% |  | 
2 | Cc1oc2c(C)c3oc(=O)cc(C)c3cc2c1CN [AMT, 4'-Aminomethyl-4,5',8-trimethylpsoralen, reference compound] |  |  |  |  |  |  |  |  |  |  |  |  |  |  |  | a signal could be detected | inhibited PCR amplification
